Assays:
[1] = tested on: Wnt pathway (Sp5-Luc reporter, SW480 cells); assay: Sp5-Luc reporter gene screening assay for Wnt activity in SW480 colon carcinoma cells; assay type: cell-based; details: Homo sapiens
From the text: The screening assay for Wnt activity is described as follows. Reporter cell lines can be generated by stably transducing cancer cell lines (e.g., colon cancer) or primary cells (e.g., IEC-6 intestinal cells) with a lentiviral construct that includes a Wnt-responsive promoter driving expression of the firefly luciferase gene.
SW480 colon carcinoma cells were transduced with a lentiviral vector expressing luciferase with a human Sp5 promoter consisting of a sequence of eight TCF/LEF binding sites. SW480 cells stably expressing the Sp5-Luc reporter gene and a hygromycin resistance gene were selected by treatment with 150 μg/ml of hygromycin for 7 days. These stably transduced SW480 cells were expanded in cell culture and used for all further screening activities. For Sp5-Luc reporter gene assays, the cells were plated at 10,000 cells/well in 96-well plates with growth medium containing 10% fetal calf serum and incubated overnight at 37° C. and 5% CO2. Each compound was dissolved in DMSO as a 10 mM stock in standard j-vials and used to prepare compound source plates in dose-response format with 3-fold serial dilutions and a 10 mM top concentration. Compound transfer from serially diluted source plates to assay plates containing the cells was accomplished using a pintool (Multimek 96, Beckman equipped with V&P Scientific FP1S50H pins) based liquid handling protocol. This protocol used a slotted pin to transfer 50 nl of compound from a source plate well to an assay plate well containing 50 μl of cells in growth medium. […] Control wells received 50 nl of DMSO treatment for normalization and calculating IC50 values. The treated cells were incubated at 37° C. and 5% CO2 for an additional forty-two hours. Following incubation, the growth medium was removed and 50 μl of BrightGlo luminescence reagent (Promega) was added to each well of the 96-well assay plates. The plates were placed on an orbital shaker for 5 min and then luminescence was quantified on the Victor3 (Perkin Elmer) plate reader. Readings were normalized to DMSO only treated cells, and normalized activities were utilized for IC50 calculations using the dose-response log (inhibitor) vs. response-variable slope (four parameters) nonlinear regression feature available in GraphPad Prism 5.0 or 6.0.

LL29 cells = assay: Inhibition of the fibrotic process (αSMA staining) in TGF-β1 treated primary human fibroblasts from IPF patients; assay type: cell-based; details: Fibroblast, 96 h, TGF-β1 20 ng/mL, 4 days, dose-response 10 μM to 1.87 nM, read-out: Inhibition of fibrosis EC50
From the text: The above synthesized compounds were screened using primary human fibroblasts (derived from IPF patients) treated with TGF-β1 to determine their ability to inhibit the fibrotic process.
Primary human fibroblasts derived from IPF patients (LL29 cells) [^1Xiaoqiu Liu, et. al., “Fibrotic Lung Fibroblasts Show Blunted Inhibition by cAMP Due to Deficient cAMP Response Element-Binding Protein Phosphorylation”, Journal of Pharmacology and Experimental Therapeutics (2005), 315(2), 678-687; ^2Watts, K. L., et. al., “RhoA signaling modulates cyclin D1 expression in human lung fibroblasts; implications for idiopathic pulmonary fibrosis”, Respiratory Research (2006), 7(1), 88] were obtained from American Type Culture Collection (ATCC) and expanded in F12 medium supplemented with 15% Fetal Bovine Serum and Penicillin/Streptomycin.
Each compound was dissolved in DMSO as a 10 mM stock and used to prepare compound source plates. Serial dilution (1:2, 11-point dose-response curves from 10 μM to 1.87 nM) and compound transfer was performed using the ECHO 550 (Labcyte, Sunnyvale, Calif.) into 384-well clear bottom assay plates (Greiner Bio-One) with appropriate DMSO backfill for a final DMSO concentration of 0.1%. LL29 cells were plated at 1,500 cells/well in 80 μl/well F12 medium supplemented with 1% Fetal Bovine Serum. One hour after addition of the cells, TGF-β1 (Peprotech; 20 ng/mL) was added to the plates to induce fibrosis (ref. 1 and 2 above). Wells treated with TGF-β1 and containing DMSO were used as controls. Cells were incubated at 37° C. and 5% CO2 for 4 days. Following incubation for 4 days, SYTOX green nucleic acid stain (Life Technologies [Thermo Fisher Scientific]) was added to the wells at a final concentration of 1 uM and incubated at room temperature for 30 min. Cells were then fixed using 4% formaldehyde (Electron Microscopy Sciences), washed 3 times with PBS followed by blocking and permeabilization using 3% Bovine Serum Albumin (BSA; Sigma) and 0.3% Triton X-100 (Sigma) in PBS. Cells were then stained with antibody specific to α-smooth muscle actin (αSMA; Abcam) (ref. 1 and 2 above) in 3% Bovine Serum Albumin (BSA; Sigma) and 0.3% Triton X-100 (Sigma) in PBS, and incubated overnight at 4° C. Cells were then washed 3 times with PBS, followed by incubation with Alexa Flor-647 conjugated secondary antibody (Life Technologies [Thermo Fisher Scientific]) and DAPI at room temperature for 1 hour. Cells were then washed 3 times with PBS and plates were sealed for imaging. αSMA staining was imaged by excitation at 630 nm and emission at 665 nm and quantified using the Compartmental Analysis program on the CellInsight CX5 (Thermo Scientific). Dead or apoptotic cells were excluded from analysis based on positive SYTOX green staining. % of total cells positive for αSMA were counted in each well and normalized to the average of 11 wells treated with TGF-31 on the same plate using Dotmatics' Studies Software. The normalized averages (fold change over untreated) of 3 replicate wells for each compound concentration were used to create dose-responses curves and EC50 values were calculated using non-linear regression curve fit in the Dotmatics' Studies Software. The EC50 values are reported.

IC50 [1] [nM]	SMILES	EC50 (LL29 cells) [nM]
25.6	O=C(Nc1cncc(-c2cc3c(-c4nc5c(-c6cccc(F)c6)nccc5[nH]4)n[nH]c3cn2)c1)C1CC1 [Compound 19, N-(5-(3-(4-(3-Fluorophenyl)-1H-imidazo[4,5-c]pyridin-2-yl)-1H-pyrazolo[3,4-c]pyridin-5-yl)pyridin-3-yl)cyclopropanecarboxamide]	≤ 9
174	CC(C)CC(=O)Nc1cncc(-c2cc3c(-c4nc5c(-c6ccc(F)cc6)nccc5[nH]4)n[nH]c3cn2)c1 [Compound 28, N-(5-(3-(4-(4-Fluorophenyl)-1H-imidazo[4,5-c]pyridin-2-yl)-1H-pyrazolo[3,4-c]pyridin-5-yl)pyridin-3-yl)-3-methylbutanamide]	553
50.9	CC(C)(C)C(=O)Nc1cncc(-c2cc3c(-c4nc5c(-c6ccc(F)cc6)nccc5[nH]4)n[nH]c3cn2)c1 [Compound 34, N-(5-(3-(4-(4-Fluorophenyl)-1H-imidazo[4,5-c]pyridin-2-yl)-1H-pyrazolo[3,4-c]pyridin-5-yl)pyridin-3-yl)pivalamide]	515
61	O=C(Nc1cncc(-c2cc3c(-c4nc5c(-c6ccc(F)cc6)nccc5[nH]4)n[nH]c3cn2)c1)C1CCC1 [Compound 46, N-(5-(3-(4-(4-Fluorophenyl)-1H-imidazo[4,5-c]pyridin-2-yl)-1H-pyrazolo[3,4-c]pyridin-5-yl)pyridin-3-yl)cyclobutanecarboxamide]	≤ 9
192	CC(C)C(=O)Nc1cncc(-c2cc3c(-c4nc5c(-c6ccccc6F)nccc5[nH]4)n[nH]c3cn2)c1 [Compound 61, N-(5-(3-(4-(2-Fluorophenyl)-1H-imidazo[4,5-c]pyridin-2-yl)-1H-pyrazolo[3,4-c]pyridin-5-yl)pyridin-3-yl)isobutyramide]	153
> 10000	CC(C)C(=O)Nc1cncc(-c2cc3c(-c4nc5c(-c6cccnc6)nccc5[nH]4)n[nH]c3cn2)c1 [Compound 87, N-(5-(3-(4-(Pyridin-3-yl)-1H-imidazo[4,5-c]pyridin-2-yl)-1H-pyrazolo[3,4-c]pyridin-5-yl)pyridin-3-yl)isobutyramide]	≥ 9990
11.2	CC(C)Nc1cncc(-c2cc3c(-c4nc5c(-c6cccnc6)nccc5[nH]4)n[nH]c3cn2)c1 [Compound 90, N-Isopropyl-5-(3-(4-(pyridin-3-yl)-1H-imidazo[4,5-c]pyridin-2-yl)-1H-pyrazolo[3,4-c]pyridin-5-yl)pyridin-3-amine]	≤ 9
114	Cc1ccncc1-c1cc2c(-c3nc4c(-c5ccncc5)nccc4[nH]3)n[nH]c2cn1 [Compound 109, 5-(4-Methylpyridin-3-yl)-3-(4-(pyridin-4-yl)-1H-imidazo[4,5-c]pyridin-2-yl)-1H-pyrazolo[3,4-c]pyridine]	≥ 9990
> 10000	CCCC(=O)Nc1cncc(-c2cc3c(-c4nc5c(-c6ccncc6)nccc5[nH]4)n[nH]c3cn2)c1 [Compound 121, N-(5-(3-(4-(Pyridin-4-yl)-1H-imidazo[4,5-c]pyridin-2-yl)-1H-pyrazolo[3,4-c]pyridin-5-yl)pyridin-3-yl)butyramide]	≥ 9990
198	CC(C)CC(=O)Nc1cncc(-c2cc3c(-c4nc5c(-c6ccccn6)nccc5[nH]4)n[nH]c3cn2)c1 [Compound 132, 3-Methyl-N-(5-(3-(4-(pyridin-2-yl)-1H-imidazo[4,5-c]pyridin-2-yl)-1H-pyrazolo[3,4-c]pyridin-5-yl)pyridin-3-yl)butanamide]	685
834	CCNCc1cncc(-c2cc3c(-c4nc5c(-c6ccccn6)nccc5[nH]4)n[nH]c3cn2)c1 [Compound 136, N-((5-(3-(4-(Pyridin-2-yl)-1H-imidazo[4,5-c]pyridin-2-yl)-1H-pyrazolo[3,4-c]pyridin-5-yl)pyridin-3-yl)methyl)ethanamine]	≤ 9

The next lines start with the compound.

SMILES	IC50 [1] [nM]	EC50 (LL29 cells) [nM]
CN(C)c1cncc(-c2cc3c(-c4nc5c(-c6cccc(F)c6)nccc5[nH]4)n[nH]c3cn2)c1 [Compound 7, 5-(3-(4-(3-Fluorophenyl)-1H-imidazo[4,5-c]pyridin-2-yl)-1H-pyrazolo[3,4-c]pyridin-5-yl)-N,N-dimethylpyridin-3-amine]	11.4	≤ 9
CN(C)Cc1cncc(-c2cc3c(-c4nc5c(-c6cccc(F)c6)nccc5[nH]4)n[nH]c3cn2)c1 [Compound 13, 1-(5-(3-(4-(3-Fluorophenyl)-1H-imidazo[4,5-c]pyridin-2-yl)-1H-pyrazolo[3,4-c]pyridin-5-yl)pyridin-3-yl)-N,N-dimethylmethanamine]	157	1660
Fc1cccc(-c2nccc3[nH]c(-c4n[nH]c5cnc(-c6cncc(CN7CCC(F)(F)C7)c6)cc45)nc23)c1 [Compound 25, 5-(5-((3,3-Difluoropyrrolidin-1-yl)methyl)pyridin-3-yl)-3-(4-(3-fluorophenyl)-1H-imidazo[4,5-c]pyridin-2-yl)-1H-pyrazolo[3,4-c]pyridine]	30.8	185
Fc1ccc(-c2nccc3[nH]c(-c4n[nH]c5cnc(-c6cncc(CN7CCCC7)c6)cc45)nc23)cc1 [Compound 40, 3-(4-(4-Fluorophenyl)-1H-imidazo[4,5-c]pyridin-2-yl)-5-(5-(pyrrolidin-1-ylmethyl)pyridin-3-yl)-1H-pyrazolo[3,4-c]pyridine]	> 10000	≥ 9990
Fc1ccc(-c2nccc3[nH]c(-c4n[nH]c5cnc(-c6cncnc6)cc45)nc23)cc1 [Compound 52, 3-(4-(4-Fluorophenyl)-1H-imidazo[4,5-c]pyridin-2-yl)-5-(pyrimidin-5-yl)-1H-pyrazolo[3,4-c]pyridine]	74.1	44
CC(C)(C)C(=O)Nc1cncc(-c2cc3c(-c4nc5c(-c6ccccc6F)nccc5[nH]4)n[nH]c3cn2)c1 [Compound 60, N-(5-(3-(4-(2-Fluorophenyl)-1H-imidazo[4,5-c]pyridin-2-yl)-1H-pyrazolo[3,4-c]pyridin-5-yl)pyridin-3-yl)pivalamide]	115	878
O=C(Nc1cncc(-c2cc3c(-c4nc5c(-c6ccccc6F)nccc5[nH]4)n[nH]c3cn2)c1)C1CCCC1 [Compound 73, N-(5-(3-(4-(2-Fluorophenyl)-1H-imidazo[4,5-c]pyridin-2-yl)-1H-pyrazolo[3,4-c]pyridin-5-yl)pyridin-3-yl)cyclopentanecarboxamide]	264	534
O=C(Nc1cncc(-c2cc3c(-c4nc5c(-c6ccccn6)nccc5[nH]4)n[nH]c3cn2)c1)C1CCC1 [Compound 150, N-(5-(3-(4-(Pyridin-2-yl)-1H-imidazo[4,5-c]pyridin-2-yl)-1H-pyrazolo[3,4-c]pyridin-5-yl)pyridin-3-yl)cyclobutanecarboxamide]	71.5	1050
